Holding throughout (format): biochemical
The target in assay [1] is T1, myeloperoxidase (MPO) (Homo sapiens, UniProt P05164).
T1 sequence (P05164 49-745): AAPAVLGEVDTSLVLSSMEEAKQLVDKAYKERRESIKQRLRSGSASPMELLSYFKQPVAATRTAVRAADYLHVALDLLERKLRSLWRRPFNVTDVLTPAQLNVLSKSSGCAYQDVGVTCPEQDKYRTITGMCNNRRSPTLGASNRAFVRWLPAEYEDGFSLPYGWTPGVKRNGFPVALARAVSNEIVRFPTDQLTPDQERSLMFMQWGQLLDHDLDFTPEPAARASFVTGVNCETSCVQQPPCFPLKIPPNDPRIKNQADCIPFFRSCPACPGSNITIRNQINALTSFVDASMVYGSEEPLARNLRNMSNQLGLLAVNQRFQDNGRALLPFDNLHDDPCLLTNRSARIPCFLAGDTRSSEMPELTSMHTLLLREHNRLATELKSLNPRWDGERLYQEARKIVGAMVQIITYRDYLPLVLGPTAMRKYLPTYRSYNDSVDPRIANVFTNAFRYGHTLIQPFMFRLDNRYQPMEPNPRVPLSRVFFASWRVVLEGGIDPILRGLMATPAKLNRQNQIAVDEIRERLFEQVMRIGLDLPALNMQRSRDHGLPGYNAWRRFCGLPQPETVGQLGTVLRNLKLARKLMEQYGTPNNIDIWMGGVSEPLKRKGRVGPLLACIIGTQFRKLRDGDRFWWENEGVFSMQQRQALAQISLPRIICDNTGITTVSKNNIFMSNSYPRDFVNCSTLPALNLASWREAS
Nature of the assay: MPO chlorination assay (APF assay). Here is the method: [formula] where A=minimal Y value (activity level of inhibited sample), B=maximal Y value (activity level of uninhibited sample), C=Log IC50, D=Hill Slope, x=concentration of inhibitor. MPO Chlorination Assay (APF Assay)
MPO chlorination activity was measured in 100 mM KPi (pH 7.4) by utilizing the non-fluorescent reagent Aminophenyl fluorescein (APF, Invitrogen Cat. #A36003). APF is cleaved by (—OCl) to yield the fluorescent compound fluorescein. […] Enzyme, inhibitor, and chloride were preincubated for ten minutes at room temperature.
After the ten minute preincubation, 25 μL of an APF mixture containing […], 120 mM NaCl and 10 μM H2O2 was added to the plate using the internal dispensing system of a Hammatsu FDSS 6000. […] IC50 values for inhibitors were calculated by taking the slope of the linear portion of the kinetic measurement (20 seconds to ˜80-120 secs).
IC50 values were calculated by determining the slope of the linear portion of the kinetic trace (180-540 secs), and using that calculated slope to determine % inhibition occurring at each concentration of inhibitor using the following equation:
(§1) [formula] where A=minimal Y value (activity level of inhibited sample), B=maximal Y value (activity level of uninhibited sample), C=Log IC50, D=Hill Slope, x=concentration of inhibitor. EPX Bromination Assay

Assay [2] deals with T1, myeloperoxidase (MPO). Nature of the assay: MPO peroxidation assay (Amplex Red assay). Conditions: MPO peroxidation, 100 mM KPi pH 7.4, ten minute preincubation. The method in brief: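 Enzyme and compound preincubated 10 min at room temperature in 100 mM KPi, pH 7.4. Amplex Red (200 μM) plus H2O2 (10 mM) mixture then added, peroxidase oxidation to fluorescent resorufin followed kinetically. IC50 from slope over 180–540 s, converted to % inhibition and fitted to a four-parameter Hill equation.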

The target in another assay is T2, EPX (Homo sapiens, UniProt P11678).
T2 construct: purchased Lee Biosolutions 342-60
T2 sequence (P11678 251-715 limits assumed): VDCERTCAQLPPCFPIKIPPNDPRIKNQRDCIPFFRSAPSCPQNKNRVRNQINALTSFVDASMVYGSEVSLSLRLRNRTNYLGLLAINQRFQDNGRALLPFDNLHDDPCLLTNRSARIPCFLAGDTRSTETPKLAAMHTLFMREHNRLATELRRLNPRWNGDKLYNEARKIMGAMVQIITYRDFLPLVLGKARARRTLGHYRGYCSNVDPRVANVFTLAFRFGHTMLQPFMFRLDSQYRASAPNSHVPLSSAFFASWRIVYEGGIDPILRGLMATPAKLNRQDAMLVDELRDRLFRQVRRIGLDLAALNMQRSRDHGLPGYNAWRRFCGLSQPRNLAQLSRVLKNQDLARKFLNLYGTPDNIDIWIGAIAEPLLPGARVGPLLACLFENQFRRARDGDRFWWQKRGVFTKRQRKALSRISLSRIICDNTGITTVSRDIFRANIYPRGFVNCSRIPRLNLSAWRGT
T2 sequence (P11678 140-250 limits assumed): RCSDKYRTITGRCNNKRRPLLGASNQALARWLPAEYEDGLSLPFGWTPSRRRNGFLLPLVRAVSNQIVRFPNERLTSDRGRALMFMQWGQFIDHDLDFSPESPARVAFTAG
Nature of the assay: EPX bromination assay. Here is the method:
as §1
EPX bromination activity was measured in 100 mM KPi (pH 7.4) by monitoring the H2O2 catalyzed formation of 3-bromo tyrosine from tyrosine and potassium bromide. […] Enzyme and compound were preincubated for ten minutes at room temperature.
The reaction was allowed to proceed for 15 minutes, at which time it was quenched with 10 μL of 20% TCA. The final concentrations of all components were 0.3 μM EPX, 100 μM tyrosine, […], 5 μM H2O2, 0.1% DMSO, 2.0% TCA.
[formula] where A=minimal Y value (activity level of inhibited sample), B=maximal Y value (activity level of uninhibited sample), C=Log IC50, D=Hill Slope, x=concentration of inhibitor.
The column was maintained at 60° C. Samples were eluted using a gradient of 0%-100% B over 2.5 minutes, followed by equilibration with 100% A for 1 minute where A consisted of 0.1% TFA and B consisted of 90% MeOH/0.1% TFA at a flow rate of 0.6 mL/min.

Where [3] appears, read: MPO chlorination, 100 mM KPi pH 7.4, ten minute preincubation, read-out: APF Assay IC50 value.
The mark [4] stands for this setting: read-out: Amplex Red Assay IC50 value.
Setting [5] is: EPX bromination, 100 mM KPi pH 7.4, ten minute preincubation, read-out: EPX IC50.

This passage reports IC50 results from patent US9920075B2, “Triazolopyridine and triazolopyrimidine inhibitors of myeloperoxidase” (BRISTOL-MYERS SQUIBB COMPANY, priority 2014, dated 2018).

SMILES strings stand for the structures. Read-outs that look alike come from different tables or passages of the source.

What is called IC50 is the concentration needed to halve the response being measured. Consider `CCn1nc(COc2cc(N)nc3[nH]nnc23)cc1C(F)(F)F` [Example 6, 7-((1-Ethyl-5-(trifluoromethyl)-1H-pyrazol-3-yl)methoxy)-3H-[1,2,3]triazolo[4,5-b]pyridin-5-amine], for which the IC50 was found to be 130 nM on myeloperoxidase (MPO) [1] (setting [3]), 20 nM at myeloperoxidase (MPO) [2] (setting [4]) and 70 nM on EPX (setting [5]).

Regarding `COc1ccc(-n2nc(C)c(COc3cc(N)nc4[nH]nnc34)n2)cc1` [Example 11, 7-((2-(4-Methoxyphenyl)-5-methyl-2H-1,2,3-triazol-4-yl)methoxy)-3H-[1,2,3]triazolo[4,5-b]pyridin-5-amine], the 50% inhibitory concentration (IC50) was 170 nM at myeloperoxidase (MPO) [1] (setting [3]), 20 nM on myeloperoxidase (MPO) [2] (setting [4]) and 40 nM at EPX (setting [5]).

Take `Cn1ncc2c(COc3cc(N)nc4[nH]nnc34)cccc21` [Example 15, 7-((1-Methyl-1H-indazol-4-yl)methoxy)-3H-[1,2,3]triazolo[4,5-b]pyridin-5-amine]: the results for the IC50 on myeloperoxidase (MPO) [1] (setting [3]), at myeloperoxidase (MPO) [2] (setting [4]) and on EPX (setting [5]) were 60 nM, 20 nM and 40 nM, respectively.

Turning to `Nc1cc(OCc2nn(-c3ccccc3)nc2C(F)F)c2nn[nH]c2n1` [Example 55, 7-((5-(Difluoromethyl)-2-phenyl-2H-1,2,3-triazol-4-yl)methoxy)-3H-[1,2,3]triazolo[4,5-b]pyridin-5-amine], the values for the IC50 against myeloperoxidase (MPO) [1], against myeloperoxidase (MPO) [2] (Amplex Red Assay IC50 value) and at EPX were 80 nM, 10 nM and 10 nM, respectively.
